This passage reports IC50 results from patent US11999699B2, “Substituted pyrazole amides” (GRUENENTHAL GMBH, priority 2021, dated 2024).

For the test, the target named is T1, human NaV1.8 (Homo sapiens, UniProt Q9Y5Y9).
T1 construct: The following NaV1.8 recombinant cell line was used for recordings: HEK-NaV1.8 (NM 006514.1); expressed in transfected cells; host or cells: HEK (recombinant cell line HEK-NaV1.8)
The experiment in a line: Electrophysiology: automated whole-cell voltage-clamp (patch clamp, Qube384) recordings of sodium currents in HEK-NaV1.8 cells. The class given is cell-based. The conditions noted are these: potency data either taken from inactivated or resting state, read-out: Potency category (human NaV1.8 IC50). Summed up: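 Automated whole-cell patch clamp at room temperature on HEK cells expressing human NaV1.8, with 0.3% DMSO vehicle controls. State-dependent protocol from −120 mV tested resting (P1) and half-inactivated (P2, 4 s at V1/2) channels, plus 40-pulse trains at 10 and 20 Hz. Values after ~12 min compound exposure were normalised to baseline and corrected for vehicle run-down; IC50 from a 4-parameter logistic fit, taken from inactivated or resting state.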

T1 sequence (Q9Y5Y9 whole entry): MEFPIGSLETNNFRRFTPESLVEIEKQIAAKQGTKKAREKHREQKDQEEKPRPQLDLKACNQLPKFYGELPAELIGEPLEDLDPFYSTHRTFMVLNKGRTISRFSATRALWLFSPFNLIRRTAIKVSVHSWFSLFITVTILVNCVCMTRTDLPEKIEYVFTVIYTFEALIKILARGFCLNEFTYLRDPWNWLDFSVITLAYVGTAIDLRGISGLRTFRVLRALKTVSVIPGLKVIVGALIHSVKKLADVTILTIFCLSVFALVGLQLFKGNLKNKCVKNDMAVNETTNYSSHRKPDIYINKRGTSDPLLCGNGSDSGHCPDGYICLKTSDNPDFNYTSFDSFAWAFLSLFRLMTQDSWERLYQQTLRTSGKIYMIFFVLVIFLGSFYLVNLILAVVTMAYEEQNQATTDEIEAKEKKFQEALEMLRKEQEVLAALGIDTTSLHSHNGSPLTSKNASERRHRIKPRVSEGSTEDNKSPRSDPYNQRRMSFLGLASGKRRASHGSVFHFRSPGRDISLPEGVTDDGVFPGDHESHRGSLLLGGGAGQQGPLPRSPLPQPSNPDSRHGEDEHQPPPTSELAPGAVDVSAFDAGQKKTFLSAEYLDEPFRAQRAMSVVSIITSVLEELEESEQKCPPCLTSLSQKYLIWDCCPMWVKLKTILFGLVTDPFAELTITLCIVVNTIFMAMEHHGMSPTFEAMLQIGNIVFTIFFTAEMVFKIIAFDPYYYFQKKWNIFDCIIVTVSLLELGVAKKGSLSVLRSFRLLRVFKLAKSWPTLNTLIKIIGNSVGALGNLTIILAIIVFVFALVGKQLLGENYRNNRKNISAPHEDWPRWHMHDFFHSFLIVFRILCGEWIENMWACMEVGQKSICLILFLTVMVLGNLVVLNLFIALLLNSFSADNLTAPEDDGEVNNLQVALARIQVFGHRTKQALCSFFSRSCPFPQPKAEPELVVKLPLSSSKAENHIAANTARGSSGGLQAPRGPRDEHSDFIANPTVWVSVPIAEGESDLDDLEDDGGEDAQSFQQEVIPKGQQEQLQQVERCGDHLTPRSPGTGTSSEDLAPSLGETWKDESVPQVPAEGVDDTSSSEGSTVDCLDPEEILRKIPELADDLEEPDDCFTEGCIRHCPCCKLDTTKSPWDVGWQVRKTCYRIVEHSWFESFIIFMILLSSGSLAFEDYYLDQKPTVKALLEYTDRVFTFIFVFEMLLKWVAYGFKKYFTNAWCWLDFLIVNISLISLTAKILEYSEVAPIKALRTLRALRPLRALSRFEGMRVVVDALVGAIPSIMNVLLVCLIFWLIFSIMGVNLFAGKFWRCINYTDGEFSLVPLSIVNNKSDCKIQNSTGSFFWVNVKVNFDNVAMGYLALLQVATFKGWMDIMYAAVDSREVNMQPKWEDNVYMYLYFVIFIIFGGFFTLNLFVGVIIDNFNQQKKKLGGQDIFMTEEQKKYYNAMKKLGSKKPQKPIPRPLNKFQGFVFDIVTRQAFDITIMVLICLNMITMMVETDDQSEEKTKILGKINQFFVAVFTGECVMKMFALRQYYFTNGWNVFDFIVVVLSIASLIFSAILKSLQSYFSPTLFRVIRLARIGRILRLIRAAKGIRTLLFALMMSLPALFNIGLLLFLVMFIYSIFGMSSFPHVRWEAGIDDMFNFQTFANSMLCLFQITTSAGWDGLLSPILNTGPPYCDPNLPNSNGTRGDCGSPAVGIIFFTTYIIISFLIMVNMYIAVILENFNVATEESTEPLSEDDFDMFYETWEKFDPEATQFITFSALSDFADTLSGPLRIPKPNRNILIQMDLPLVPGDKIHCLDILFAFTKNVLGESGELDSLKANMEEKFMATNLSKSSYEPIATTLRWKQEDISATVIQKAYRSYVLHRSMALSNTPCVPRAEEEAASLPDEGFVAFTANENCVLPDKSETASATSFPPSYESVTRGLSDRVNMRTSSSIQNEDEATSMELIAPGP
T1 sequence (Q9NY72 23-215 partner): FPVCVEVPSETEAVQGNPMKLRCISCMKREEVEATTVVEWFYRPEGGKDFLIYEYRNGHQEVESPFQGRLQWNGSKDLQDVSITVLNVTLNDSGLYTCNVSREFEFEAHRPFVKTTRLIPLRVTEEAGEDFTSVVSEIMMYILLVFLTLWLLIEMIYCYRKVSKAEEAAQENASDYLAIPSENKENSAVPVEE

Turning to `CCc1nn(CC2CC(F)(F)C2)c(C(=O)Nc2ccnc(S(C)(=O)=O)c2)c1C` [SC-302, 1-((3,3-difluorocyclobutyl)methyl)-3-ethyl-4-methyl-N-(2-(methylsulfonyl)pyridin-4-yl)-1H-pyrazole-5-carboxamide], the half-inhibitory concentration (IC50) lay within 100 to 1000 nM.

Take `Cc1cnn(CC2CCCCC2)c1C(=O)Nc1cccc(S(C)(=O)=O)c1` [SC-37, 2-(cyclohexylmethyl)-4-methyl-N-(3-methylsulfonylphenyl)pyrazole-3-carboxamide]: the half-inhibitory concentration (IC50) is 1000 to 10000 nM.

Take `NC(=O)c1cc(NC(=O)c2c(C(F)(F)F)c(C3CC3)nn2CC2CCCCO2)ccn1` (single isomer, unassigned) [SC-258b]: the 50% inhibitory concentration (IC50) was at most 100 nM.

With `COc1nn(CC2CCC(F)(F)C2)c(C(=O)Nc2ccnc(C(N)=O)c2)c1C(F)(F)F` (stereo not drawn) [SC-273, 4-(1-((3,3-difluorocyclopentyl)methyl)-3-methoxy-4-(trifluoromethyl)-lH-pyrazole-5-carboxamido)picolinamide], the half-maximal inhibitory concentration (IC50) is at most 100 nM.

In the case of `NC(=O)c1cc(NC(=O)c2c(C(F)(F)F)c(C3CC3)nn2CC2CCCCO2)ccc1F` (stereo not drawn) [SC-140, N-(3-carbamoyl-4-fluorophenyl)-3-cyclopropyl-1-((tetrahydro-2H-pyran-2-yl)methyl)-4-(trifluoromethyl)-1H-pyrazole-5-carboxamide], the concentration for half-maximal inhibition (IC50) is at most 100 nM.

On to `NC(=O)c1cc(NC(=O)c2c(C(F)(F)F)c(OC3CC(F)(F)C3)nn2CC2CCC(F)(F)C2)ccn1` (stereo not drawn) [SC-283, 4-(3-(3,3-difluorocyclobutoxy)-1-((3,3-difluorocyclopentyl)methyl)-4-(trifluoromethyl)-1H-pyrazole-5-carboxamido)picolinamide], for which the half-maximal inhibitory concentration (IC50) was at most 100 nM.

For `NC(=O)c1cc(NC(=O)c2c(C(F)(F)F)c(C3CC3)nn2CC2CCC(F)(F)C2)ccn1` (single isomer, unassigned) [SC-129b], the 50% inhibitory concentration (IC50) was at most 100 nM.

For the compound `Cc1nn(CC2CCC(F)(F)CC2)c(C(=O)Nc2cccc(S(C)(=O)=O)c2)c1C` [SC-44, 2-[(4,4-difluorocyclohexyl)methyl]-4,5-dimethyl-N-(3-methylsulfonylphenyl)pyrazole-3-carboxamide], the half-inhibitory concentration (IC50) is 100 to 1000 nM.

Take `Cc1nn(CC2CCC(F)(F)C2)c(C(=O)Nc2cccc(S(N)(=O)=O)c2)c1OC(F)(F)F` (stereo not drawn) [SC-304, 1-((3,3-difluorocyclopentyl)methyl)-3-methyl-N-(3-sulfamoyiphenyl)-4-(trifluoromethoxy)-1H-pyrazole-5-carboxamide]: the half-inhibitory concentration (IC50) lay in the range of 100 to 1000 nM.

In the case of `COCCOC[C@@H]1CCCC[C@@H]1Cn1nc(C(C)(F)F)c(C)c1C(=O)Nc1ccnc(C(N)=O)c1` (relative stereo) [SC-223, 4-(3-(1,1-difluoroethyl)-1-((2-((2-methoxyethoxy)methyl)cyclohexyl)methyl)-4-methyl-1H-pyrazole-5-ca±oxamido)picolinamide], the concentration for half-maximal inhibition (IC50) was at most 100 nM.

With `NS(=O)(=O)c1cccc(NC(=O)c2c(C(F)(F)F)cnn2CC2CCC(F)(F)CC2)c1` [SC-43, 2-[(4,4-difluorocyclohexyl)methyl]-N-(3-sulfamoylphenyl)-4-(trifluoromethyl)pyrazole-3-carboxamide], the half-maximal inhibitory concentration (IC50) lay within 100 to 1000 nM.

Turning to `Cc1nn(CC2CCCCC2)c(C(=O)Nc2cccc(S(N)(=O)=O)c2)c1C(F)(F)F` [SC-244, 1-(cyclohexyimethyl)-3-methyl-N-(3-sulfamoylphenyl)-4-(trifluoromethyl)-1H-pyrazole-5-carboxamide], the IC50 is at most 100 nM.

With `Cc1nn(CC2CCCCC2)c(C(=O)Nc2cc[nH]c(=O)c2)c1C` [SC-07, 1-(cyclohexylmethyl)-3,4-dimethyl-N-(2-oxo-1,2-dihydropyridin-4-yl)-1H-pyrazole-5-carboxamide], the IC50 was in the range of 1000 to 10000 nM.

For `CS(=O)(=O)c1cccc(NC(=O)c2c(C(F)(F)F)cnn2CC2CCOCC2)c1` [SC-28, N-(3-methylsulfonylphenyl)-2-(oxan-4-ylmethyl)-4-(trifluoromethyl)pyrazole-3-carboxamide], the IC50 is 1000 to 10000 nM.

Regarding `Cc1nn(CC2CCC(F)(F)CC2)c(C(=O)Nc2ccc(C(N)=O)nc2)c1C(F)(F)F` [SC-257, 5-(1-((4,4-difluorocyclohexyl)methyl)-3-methyl-4-(trifluoromethyl)-1H-pyrazole-5-carboxamido)picolinamide], the half-maximal inhibitory concentration (IC50) lay in the range of 100 to 1000 nM.

Regarding `CS(=O)(=O)c1cc(NC(=O)c2c(C(F)(F)F)c(C3CC3)nn2C[C@@H]2CCO[C@@H]2C(F)(F)F)ccn1` (single isomer, unassigned) [SC-150a], the IC50 was at most 100 nM.

On to `NC(=O)c1cc(NC(=O)c2c(C(F)(F)F)c(C3CC3)nn2CC2CC(F)(F)C2)ccn1` [SC-144, 4-(3-cyclopropyl-1-((3,3-difluorocyclobutyl)methyl)-4-(trifluoromethyl)-1H-pyrazole-5-carboxamido)picolinamide], for which the half-maximal inhibitory concentration (IC50) was at most 100 nM.

In the case of `Cc1nn(CC2CCC(F)(F)CC2)c(C(=O)Nc2ccnc(C(N)=O)c2F)c1C(F)(F)F` [SC-289, 4-(1-((4,4-difluorocyclohexyl)methyl)-3-methyl-4-(trifluoromethyl)-1H-pyrazole-5-carboxamido)-3-fluoropicolinamide], the half-inhibitory concentration (IC50) fell in the range of 1000 to 10000 nM.

For `Cc1nn(CC2CCC(F)(F)CC2)c(C(=O)Nc2cccc(S(N)(=O)=O)c2)c1Cl` [SC-236, 4-chloro-1-((4,4-difluorocyclohexyl)methyl)-3-methyl-N-(3-sulfamoylphenyl)-1H-pyrazole-5-carboxamide], the IC50 was at most 100 nM.

`CC(C1CCCCC1)n1ncc(C(F)(F)F)c1C(=O)Nc1ccnc(O)c1` (stereo not drawn) [SC-32, 2-(1-cyclohexylethyl)-N-(2-hydroxypyridin-4-yl)-4-(trifluoromethyl)pyrazole-3-carboxamide]: the IC50 lay within 1000 to 10000 nM.

On to `CS(=O)(=O)c1cccc(NC(=O)c2c(C#N)cnn2CC2CCCCC2)c1` [SC-10, 4-cyano-1-(cyclohexylmethyl)-N-(3-(methylsulfonyl)phenyl)-1H-pyrazole-5-carboxamide], for which the concentration for half-maximal inhibition (IC50) is 100 to 1000 nM.

Take `NS(=O)(=O)c1cc(NC(=O)c2c(C(F)(F)F)c(C3CC3)nn2CC2CC(F)(F)C2)ccn1` [SC-282, 3-cyclopropyl-1-((3,3-difluorocyclobutyl)methyl)-N-(2-sulfamoylpyridin-4-yl)-4-(trifluoromethyl)-1H-pyrazole-5-carboxamide]: the concentration for half-maximal inhibition (IC50) is at most 100 nM.

Regarding `CS(=O)(=O)c1cc(NC(=O)c2c(C(F)(F)F)c(C3CC3)nn2CC2CCCCO2)ccn1` (single isomer, unassigned) [SC-259b], the IC50 was at most 100 nM.

In the case of `NC(=O)c1cc(NC(=O)c2c(C(F)(F)F)c(C3CC3)nn2CC2CC2)ccn1` [SC-266, 4-(3-cyclopropyl-1-(cyclopropylmethyl)-4-(trifluoromethyl)-1H-pyrazole-5-carboxamido)picolinamide], the half-maximal inhibitory concentration (IC50) was at most 100 nM.

Turning to `NC(=O)c1cc(NC(=O)c2c(C(F)(F)F)c(C3CC3)nn2CC2CC(F)(F)C2(F)F)ccn1` (single isomer, unassigned) [SC-291a], the half-maximal inhibitory concentration (IC50) is at most 100 nM.

Regarding `NC(=O)c1cc(NC(=O)c2c(C(F)(F)F)c(C3CC3)nn2C[C@@H]2CC[C@H](C(F)(F)F)O2)ccn1` (single isomer, unassigned) [SC-284a], the IC50 was at most 100 nM.

`COC1(Cn2nc(C(C)(F)F)c(C)c2C(=O)Nc2ccnc(S(N)(=O)=O)c2)CC1` [SC-308, 3-(1,1-difluoroethyl)-1-((1-methoxycyclopropyl)methyl)-4-methyl-N-(2-sulfamoylpyridin-4-yl)-1H-pyrazole-5-carboxamide]: the IC50 was in the range of 1000 to 10000 nM.
